Experimental data reported in publication PMC6713218, “Hyaluronic acid-functionalized bilosomes for targeted delivery of tripterine to inflamed area with enhancive therapy on arthritis” (Drug Delivery, 2019).

Columns and labels:
RAW264.7 cells = experiment: Cellular uptake test (intracellular Tri by HPLC); assay type: cell-based, murine; conditions: for Reduction in cellular uptake of HA@Tri-BLs: inhibitor or competitor added: free HA 25 μM, HUTCH-1 10 μg/mL, hypertonic sucrose 400 mM, chlorpromazine 25 μM, EIPA 50 μM, vs control without inhibitor
Method: The cellular uptake of Tri-loaded bilosomes were investigated in RAW264.7 cells, a murine macrophage line. The cells were cultured in a RPMI-1640 medium containing 10% FBS (Gibco, CA, USA) at 37 °C in 5% CO2. When the cells grew to 80 ∼ 90% confluence, they were eligible for the cellular uptake test. Tri solution (dissolve in 75% ethanol), Tri-BLs and HA@Tri-BLs were diluted to 10 μg/mL with the culture medium and introduced into the cell wells for coincubation. To elucidate the uptake mechanism of HA@Tri-BLs, the uptake of HA@Tri-BLs was specially measured in the presence of various cytosis inhibitors or competitor, including hypertonic sucrose (400 mM), chlorpromazine (25 μM), simvastatin (5 μM), genistein (200 μM), free HA (25 μM), HUTCH-1 (10 μg/mL), EIPA (50 μM) and Lantraculin A (2.5 μM) (Deng et al., [2017]). The intracellular drug concentration was determined using HPLC by lysing the cells with RIPA lysis buffer and corrected by the protein content with BCA protein assay kit.

[1] = Intra-articular pharmacokinetics and biodistribution in arthritic rats; assay type: in vivo, Sprague–Dawley (SD) rats
[2] = Plasma pharmacokinetics in arthritic rats; assay type: in vivo; conditions: Sprague-Dawley, rat, iv, i.v. 10 mg/kg, mean ± SD
Method: The pharmacokinetics and tissue distribution of free Tri, Tri-BLs and HA@Tri-BLs were studied in arthritic rats. Sprague–Dawley (SD) rats weighing 250 ± 20 g were used to establish the arthritic model. The rats were acclimatized for 20 days in a standard animal room and provided with food and water ad libitum. On the 21st day, the rats were received injection of Freund’s complete adjuvant (FCA) containing 10 mg/mL of Mycobacterium tuberculosis (Sigma-Aldrich) at the right foot (Jia and He, [2016]). […] The established arthritic rats were intravenously injected with Tri solution (dissolved in 75% ethanol solution and diluted with deionized water), Tri-BLs and HA@Tri-BLs via the jugular vein at a dose of 10 mg/kg. After administration, aliquots of blood (∼250 μL) were continuously sampled from the caudal vein into heparinized tubes at predetermined intervals.
Another three groups of arthritic rats were applied for biodistribution study to analyze the in vivo drug distribution of Tri solution, Tri-BLs and HA@Tri-BLs. At 0.5, 1, 2 and 4 h after injection, […] were sacrificed, and the heart, liver, spleen, lung, and kidney as well as the joint were excised or harvested. The drug in the blood and tissue samples was extracted twice with ethyl acetate from the prepared plasma and tissue homogenates (Zhang et al., [2014]). The extracted drug solution was then condensed and reconstituted in 50 μL of methanol for HPLC analysis with gossypol as an internal standard. The experimental protocols settled were reviewed and approved by the Animal Care and Use Committee of Chengdu University of Traditional Chinese Medicine.

Water solubility = assay type: physicochemical

hyaluronic acid [free HA]
Reduction in cellular uptake of HA@Tri-BLs (RAW264.7 cells): 47.5%

OC[C@H]1O[C@@](CO)(O[C@H]2O[C@H](CO)[C@@H](O)[C@H](O)[C@H]2O)[C@@H](O)[C@@H]1O [hypertonic sucrose, sucrose]
Reduction in cellular uptake of HA@Tri-BLs (RAW264.7 cells): inhibited the cellular uptake of HA@Tri-BLs to different extents

CC1=C(O)C(=O)C=C2C1=CC=C1[C@@]2(C)CC[C@@]2(C)[C@@H]3C[C@](C)(C(=O)O)CC[C@]3(C)CC[C@]12C [Tri solution, Tripterine]
Cmax ([1]; Sprague-Dawley, rat, iv, arthritic rats, i.v. 10 mg/kg, joint, mean ± SD, n = 6): 652 ± 146 ng/mL | AUC(0-t) ([1]; Sprague-Dawley, rat, iv, arthritic rats, i.v. 10 mg/kg, joint, mean ± SD, n = 6, read-out: AUC0−t in the joint): 1470 ± 402 ng·h/mL | AUC(0-inf) ([1]; Sprague-Dawley, rat, iv, arthritic rats, i.v. 10 mg/kg, joint, read-out: AUC0–∞ pertinent to the joints): 1470 ng·h/mL | Biodistribution of Tri in organs ([1]; arthritic rats, 0.5, 1, 2 and 4 h after injection): high distribution in the organs of heart and kidney besides the plasma | AUC(0-inf) ([2]; n = 6): 35900 ± 530 ng·h/mL | half-life ([2]; n = 6): 6.15 ± 0.22 h | clearance ([2]; n = 6, read-out: CL (total drug clearance from plasma) (converted)): 4.65 mL/min | Cmax ([2]; n = 6, read-out: Cmax (maximum plasma concentration)): 22600 ± 710 ng/mL | MRT ([2]; n = 6, read-out: MRT (mean residence time)): 7.07 ± 0.767 h | Vd ([2]; n = 6, read-out: V (apparent volume of distribution)): 1.97 ± 0.35 L | Cellular uptake of Tri (intracellular Tri content) (RAW264.7 cells; 10 μg/mL, three incubation times): minimal uptake level | Water-solubility (Water solubility): extremely poor water-solubility

CN(C)CCCN1c2ccccc2Sc2ccc(Cl)cc21 [chlorpromazine, Chlorpromazine]
Reduction in cellular uptake of HA@Tri-BLs (RAW264.7 cells): inhibited the cellular uptake of HA@Tri-BLs to different extents

CCN(c1nc(N)c(C(=O)NC(=N)N)nc1Cl)C(C)C [EIPA, ethylisopropyl amiloride]
Reduction in cellular uptake of HA@Tri-BLs (RAW264.7 cells): inhibited the cellular uptake of HA@Tri-BLs to different extents
